The text below walks through data of paper PMC11788324, “4,6-Disubstituted pyrimidine-based microtubule affinity-regulating kinase 4 (MARK4) inhibitors: synthesis, characterization, in-vitro activity and in-silico studies” (Frontiers in Pharmacology, 2025).

Assay [1] concerns the target T1, MARK4 (Homo sapiens, UniProt Q96L34).
T1 sequence (Q96L34 1-752): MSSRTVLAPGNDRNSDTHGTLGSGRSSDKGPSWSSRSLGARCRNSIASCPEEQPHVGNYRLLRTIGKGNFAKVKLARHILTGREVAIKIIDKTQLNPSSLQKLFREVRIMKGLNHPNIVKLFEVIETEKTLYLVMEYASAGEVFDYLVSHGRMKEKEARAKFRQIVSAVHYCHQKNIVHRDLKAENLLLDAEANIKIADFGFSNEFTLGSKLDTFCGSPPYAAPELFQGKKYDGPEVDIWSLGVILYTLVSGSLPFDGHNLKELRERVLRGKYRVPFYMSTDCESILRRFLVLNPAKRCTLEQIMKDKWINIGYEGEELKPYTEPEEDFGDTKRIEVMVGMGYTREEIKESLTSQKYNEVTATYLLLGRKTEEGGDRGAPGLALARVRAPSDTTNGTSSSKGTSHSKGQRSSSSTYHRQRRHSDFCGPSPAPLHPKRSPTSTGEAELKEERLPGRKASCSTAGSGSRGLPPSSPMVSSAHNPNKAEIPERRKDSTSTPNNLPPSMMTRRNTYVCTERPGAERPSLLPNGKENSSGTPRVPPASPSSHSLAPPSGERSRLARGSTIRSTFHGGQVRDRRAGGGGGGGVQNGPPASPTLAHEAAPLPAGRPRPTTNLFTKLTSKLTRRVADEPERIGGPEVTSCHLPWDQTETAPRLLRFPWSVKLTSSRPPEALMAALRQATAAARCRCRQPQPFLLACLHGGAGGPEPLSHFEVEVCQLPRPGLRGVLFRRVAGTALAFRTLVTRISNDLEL
The assay can be described thus: MARK4 ATPase (malachite green) enzyme inhibition assay. In kind it is biochemical. The settings on record: MARK4 5 μM, 1 hour at 25°C, triplicates. As to the method: The inhibitory potential of the synthesized compounds against MARK4 was analysed using the malachite green based enzyme inhibition assay. The malachite green kinase inhibition assay is a colorimetric technique designed to assess kinase activity by detecting the release of inorganic phosphate (Pi) during phosphorylation. When a kinase transfers a phosphate group from ATP to its substrate, Pi is generated as a byproduct. The malachite green reagent interacts with Pi to produce a green-colored complex, which can be quantified using a spectrophotometer. This assay is modified to evaluate enzyme inhibition by measuring the reduction in Pi release in the presence of potential inhibitors. […] The protein’s highest activity, MARK4 (ligand-free), was utilised as a reference, and various ligand concentrations were added to determine the IC50 value. […] Finally 96 well plates were filled with 100 μL of the reaction mixture, which was then scanned at 620 nm using a multiscan ELISA reader. […]
MARKs, or microtubule-affinity regulating kinases, are a group of serine/threonine kinases found in mammals and other organisms ([Naz et al., 2013]). […] In the present study, we selected MARK4 as the target and assessed our compounds against it. […] Following this, attempts have been made to collect the fluorescence quenching of MARK4 in the presence of the best inhibitor (14). […]

Assay [2] has as its target T1, MARK4. The assay can be described thus: Fluorescence quenching of MARK4. In kind it is binding. To be noted: data not included. The source says: MARKs, or microtubule-affinity regulating kinases, are a group of serine/threonine kinases found in mammals and other organisms ([Naz et al., 2013]). These kinases play a critical role in phosphorylating microtubule-associated proteins, which then go on to regulate important processes like cell cycle progression and cytoskeletal dynamics. These kinases are quite abundant in the human brain and are known to be key players in the development and progression of various diseases including cancer and ADs ([Alam et al., 2023]). Despite their high importance, there has been limited research on the development of synthetic small molecules (inhibitors) against MARK4 ([Li et al., 2020]; [Voura et al., 2022]). In the present study, we selected MARK4 as the target and assessed our compounds against it. The kinase inhibitory potential of the compounds against MARK4 was examined using an ATPase inhibition assay ([Yousuf et al., 2015]; [Yousuf et al., 2022]). […] Following this, attempts have been made to collect the fluorescence quenching of MARK4 in the presence of the best inhibitor (14). […] The rationale behind the behaviour is currently under investigation.

On the set-up of assay [3]: method as in Pant et al., 2024. The settings on record: compared with donepezil; ref Pant et al., 2024; cited from earlier work.

Each structure is given as a SMILES string.

On MARK4 [1], `COc1ccc(S(=O)(=O)N2CCN(c3cc(-c4ccsc4)ncn3)CC2)c(OC)c1` [Compound 9, 4-(4-((2,4-Dimethoxyphenyl)-sulfonyl)-piperazin-1-yl)-6-(thiophen-3-yl)-pyrimidine] came in with an IC50 of 13 ± 0.63 µM.

Take `O=S(=O)(c1cccc2ccccc12)N1CCN(c2cc(-c3ccsc3)ncn2)CC1` [Compound 14, 4-(4-(Naphthalen-1-ylsulfonyl)-piperazin-1-yl)-6-(thiophen-3-yl)-pyrimidine]: at MARK4 [1], 7.52 ± 0.33 µM corresponded to half-maximal inhibition (IC50). Moreover, at MARK4 [2], the “fluorescence quenching of MARK4 emission” value is on record as “did not show appreciable quenching”.

In the case of `Clc1ccc(Cc2ccnc(CCN3CCCCC3)n2)cc1` [a], the neuroprotective effects result in assay [3] was “neuroprotective effects better than donepezil”.
